Converted amounts (≈) assume the structure as drawn.
Assays:
Assay type in all cases: functional
Conditions in all cases: time 16-24 hrs
Klebsiella pneumoniae = experiment: Antibacterial activity against Klebsiella pneumoniae clinical isolate incubated for 16 to 24 hrs by CLSI based broth microdilution method
Pseudomonas aeruginosa = experiment: Antibacterial activity against Pseudomonas aeruginosa PAO1 incubated for 16 to 24 hrs by CLSI based broth microdilution method
Staphylococcus aureus [1] = experiment: Antibacterial activity against methicillin-susceptible Staphylococcus aureus incubated for 16 to 24 hrs by CLSI based broth microdilution method
Escherichia coli = experiment: Antibacterial activity against Escherichia coli AB1157 incubated for 16 to 24 hrs by CLSI based broth microdilution method
Acinetobacter baumannii = experiment: Antibacterial activity against Carbapenem-resistant Acinetobacter baumannii clinical isolate incubated for 16 to 24 hrs by CLSI based broth microdilution method
Enterococcus faecium [2] = experiment: Antibacterial activity against vancomycin-resistant Enterococcus faecium harboring VanA phenotype incubated for 16 to 24 hrs by CLSI based broth microdilution method
Enterococcus faecium [3] = experiment: Antibacterial activity against vancomycin-resistant Enterococcus faecium harboring VanB phenotype incubated for 16 to 24 hrs by CLSI based broth microdilution method
Enterococcus faecium [4] = experiment: Antibacterial activity against vancomycin-resistant Enterococcus faecium harboring VanM phenotype incubated for 16 to 24 hrs by CLSI based broth microdilution method
Staphylococcus aureus [5] = experiment: Antibacterial activity against vancomycin-intermediate Staphylococcus aureus incubated for 16 to 24 hrs by CLSI based broth microdilution method

SMILES | MIC (Klebsiella pneumoniae) | MIC (Pseudomonas aeruginosa) | MIC (Staphylococcus aureus [1]) | MIC (Escherichia coli) | MIC (Acinetobacter baumannii) | MIC (Enterococcus faecium [2]) | MIC (Enterococcus faecium [3]) | MIC (Enterococcus faecium [4]) | MIC (Staphylococcus aureus [5])
CC(C)C[C@@H](N)C(=O)N[C@H]1C(=O)N[C@@H](CC(N)=O)C(=O)N[C@H]2C(=O)N[C@H]3C(=O)N[C@H](C(=O)N[C@H](C(=O)NCCc4ccc(-c5ccc(CN)cc5)cc4)c4cc(O)cc(O)c4-c4cc3ccc4O)[C@H](O)c3ccc(c(Cl)c3)Oc3cc2cc(c3O[C@@H]2O[C@H](CO)[C@@H](O)[C@H](O)[C@H]2O[C@H]2C[C@](C)(N)[C@H](O)[C@H](C)O2)Oc2ccc(cc2Cl)[C@H]1O | > 128 µg/mL | > 128 µg/mL | 0.25 µg/mL (≈ 0.152 µM) | 8 µg/mL (≈ 4.87 µM) | 128 µg/mL (≈ 77.9 µM) | 4 µg/mL (≈ 2.43 µM) | 8 µg/mL (≈ 4.87 µM) | 8 µg/mL (≈ 4.87 µM) | 1 µg/mL (≈ 0.608 µM)
CC(C)C[C@@H](N)C(=O)N[C@H]1C(=O)N[C@@H](CC(N)=O)C(=O)N[C@H]2C(=O)N[C@H]3C(=O)N[C@H](C(=O)N[C@H](C(=O)NCCNC(=N)N)c4cc(O)cc(O)c4-c4cc3ccc4O)[C@H](O)c3ccc(c(Cl)c3)Oc3cc2cc(c3O[C@@H]2O[C@H](CO)[C@@H](O)[C@H](O)[C@H]2O[C@H]2C[C@](C)(N)[C@H](O)[C@H](C)O2)Oc2ccc(cc2Cl)[C@H]1O | > 128 µg/mL | > 128 µg/mL | 0.5 µg/mL (≈ 0.329 µM) | 32 µg/mL (≈ 21.1 µM) | 128 µg/mL (≈ 84.2 µM) | 32 µg/mL (≈ 21.1 µM) | 128 µg/mL (≈ 84.2 µM) | 32 µg/mL (≈ 21.1 µM) | 2 µg/mL (≈ 1.32 µM)
CC(C)C[C@@H](N)C(=O)N[C@H]1C(=O)N[C@@H](CC(N)=O)C(=O)N[C@H]2C(=O)N[C@H]3C(=O)N[C@H](C(=O)N[C@H](C(=O)NCCOCCOCCN)c4cc(O)cc(O)c4-c4cc3ccc4O)[C@H](O)c3ccc(c(Cl)c3)Oc3cc2cc(c3O[C@@H]2O[C@H](CO)[C@@H](O)[C@H](O)[C@H]2O[C@H]2C[C@](C)(N)[C@H](O)[C@H](C)O2)Oc2ccc(cc2Cl)[C@H]1O | > 128 µg/mL | > 128 µg/mL | 0.5 µg/mL (≈ 0.319 µM) | 64 µg/mL (≈ 40.9 µM) | > 128 µg/mL | 64 µg/mL (≈ 40.9 µM) | 64 µg/mL (≈ 40.9 µM) | 64 µg/mL (≈ 40.9 µM) | 4 µg/mL (≈ 2.56 µM)
CC(C)C[C@@H](N)C(=O)N[C@H]1C(=O)N[C@@H](CC(N)=O)C(=O)N[C@H]2C(=O)N[C@H]3C(=O)N[C@H](C(=O)N[C@H](C(=O)NCCOCCOCCNC(=N)N)c4cc(O)cc(O)c4-c4cc3ccc4O)[C@H](O)c3ccc(c(Cl)c3)Oc3cc2cc(c3O[C@@H]2O[C@H](CO)[C@@H](O)[C@H](O)[C@H]2O[C@H]2C[C@](C)(N)[C@H](O)[C@H](C)O2)Oc2ccc(cc2Cl)[C@H]1O | > 128 µg/mL | > 128 µg/mL | 1 µg/mL (≈ 0.622 µM) | 16 µg/mL (≈ 9.95 µM) | > 128 µg/mL | 32 µg/mL (≈ 19.9 µM) | 64 µg/mL (≈ 39.8 µM) | 64 µg/mL (≈ 39.8 µM) | 4 µg/mL (≈ 2.49 µM)
Cc1ccc(-c2ccc(CNC(=O)[C@H]3NC(=O)[C@H]4NC(=O)[C@H](NC(=O)[C@@H]5NC(=O)[C@H](CC(N)=O)NC(=O)[C@H](NC(=O)[C@H](N)CC(C)C)[C@H](O)c6ccc(c(Cl)c6)Oc6cc5cc(c6O[C@@H]5O[C@H](CO)[C@@H](O)[C@H](O)[C@H]5O[C@H]5C[C@](C)(N)[C@H](O)[C@H](C)O5)Oc5ccc(cc5Cl)[C@H]4O)c4ccc(O)c(c4)-c4c(O)cc(O)cc43)cc2)cc1 | > 128 µg/mL | > 128 µg/mL | 0.125 µg/mL (≈ 0.0774 µM) | 128 µg/mL (≈ 79.3 µM) | > 128 µg/mL | 8 µg/mL (≈ 4.96 µM) | 2 µg/mL (≈ 1.24 µM) | 8 µg/mL (≈ 4.96 µM) | 0.5 µg/mL (≈ 0.31 µM)
CN[C@H](CC(C)C)C(=O)N[C@H]1C(=O)N[C@@H](CC(N)=O)C(=O)N[C@H]2C(=O)N[C@H]3C(=O)N[C@H](C(=O)N[C@H](C(=O)O)c4cc(O)c(CNCCCCCCCCNC(=N)N)c(O)c4-c4cc3ccc4O)[C@H](O)c3ccc(c(Cl)c3)Oc3cc2cc(c3O[C@@H]2O[C@H](CO)[C@@H](O)[C@H](O)[C@H]2O[C@H]2C[C@](C)(N)[C@H](O)[C@H](C)O2)Oc2ccc(cc2Cl)[C@H]1O | > 128 µg/mL | 128 µg/mL (≈ 77.7 µM) | 1 µg/mL (≈ 0.607 µM) | 32 µg/mL (≈ 19.4 µM) | 128 µg/mL (≈ 77.7 µM) | 64 µg/mL (≈ 38.8 µM) | 128 µg/mL (≈ 77.7 µM) | 32 µg/mL (≈ 19.4 µM) | 2 µg/mL (≈ 1.21 µM)
CC(C)C[C@@H](N)C(=O)N[C@H]1C(=O)N[C@@H](CC(N)=O)C(=O)N[C@H]2C(=O)N[C@H]3C(=O)N[C@H](C(=O)N[C@H](C(=O)NCc4ccc(-c5ccc(CN)cc5)cc4)c4cc(O)cc(O)c4-c4cc3ccc4O)[C@H](O)c3ccc(c(Cl)c3)Oc3cc2cc(c3O[C@@H]2O[C@H](CO)[C@@H](O)[C@H](O)[C@H]2O[C@H]2C[C@](C)(N)[C@H](O)[C@H](C)O2)Oc2ccc(cc2Cl)[C@H]1O | > 128 µg/mL | > 128 µg/mL | ≤ 0.063 µg/mL | 16 µg/mL (≈ 9.82 µM) | 128 µg/mL (≈ 78.6 µM) | 8 µg/mL (≈ 4.91 µM) | 8 µg/mL (≈ 4.91 µM) | 8 µg/mL (≈ 4.91 µM) | 1 µg/mL (≈ 0.614 µM)
CC(=O)NCCCCNC(=O)[C@H]1NC(=O)[C@H]2NC(=O)[C@H](NC(=O)[C@@H]3NC(=O)[C@H](CC(N)=O)NC(=O)[C@H](NC(=O)[C@H](N)CC(C)C)[C@H](O)c4ccc(c(Cl)c4)Oc4cc3cc(c4O[C@@H]3O[C@H](CO)[C@@H](O)[C@H](O)[C@H]3O[C@H]3C[C@](C)(N)[C@H](O)[C@H](C)O3)Oc3ccc(cc3Cl)[C@H]2O)c2ccc(O)c(c2)-c2c(O)cc(O)cc21 | > 128 µg/mL | 128 µg/mL (≈ 82.7 µM) | 4 µg/mL (≈ 2.58 µM) | 128 µg/mL (≈ 82.7 µM) | 128 µg/mL (≈ 82.7 µM) | > 128 µg/mL | > 128 µg/mL | 128 µg/mL (≈ 82.7 µM) | 8 µg/mL (≈ 5.17 µM)
CC(C)C[C@@H](N)C(=O)N[C@H]1C(=O)N[C@@H](CC(N)=O)C(=O)N[C@H]2C(=O)N[C@H]3C(=O)N[C@H](C(=O)N[C@H](C(=O)NCCCCNC(=N)N)c4cc(O)cc(O)c4-c4cc3ccc4O)[C@H](O)c3ccc(c(Cl)c3)Oc3cc2cc(c3O[C@@H]2O[C@H](CO)[C@@H](O)[C@H](O)[C@H]2O[C@H]2C[C@](C)(N)[C@H](O)[C@H](C)O2)Oc2ccc(cc2Cl)[C@H]1O | > 128 µg/mL | 128 µg/mL (≈ 82.7 µM) | 1 µg/mL (≈ 0.646 µM) | 8 µg/mL (≈ 5.17 µM) | 128 µg/mL (≈ 82.7 µM) | 32 µg/mL (≈ 20.7 µM) | 32 µg/mL (≈ 20.7 µM) | 64 µg/mL (≈ 41.4 µM) | 2 µg/mL (≈ 1.29 µM)
CC(C)C[C@@H](N)C(=O)N[C@H]1C(=O)N[C@@H](CC(N)=O)C(=O)N[C@H]2C(=O)N[C@H]3C(=O)N[C@H](C(=O)N[C@H](C(=O)NCCCCCCN)c4cc(O)cc(O)c4-c4cc3ccc4O)[C@H](O)c3ccc(c(Cl)c3)Oc3cc2cc(c3O[C@@H]2O[C@H](CO)[C@@H](O)[C@H](O)[C@H]2O[C@H]2C[C@](C)(N)[C@H](O)[C@H](C)O2)Oc2ccc(cc2Cl)[C@H]1O | > 128 µg/mL | 128 µg/mL (≈ 83.5 µM) | 2 µg/mL (≈ 1.3 µM) | 32 µg/mL (≈ 20.9 µM) | > 128 µg/mL | 64 µg/mL (≈ 41.7 µM) | 64 µg/mL (≈ 41.7 µM) | 64 µg/mL (≈ 41.7 µM) | 8 µg/mL (≈ 5.22 µM)
CC(C)C[C@@H](N)C(=O)N[C@H]1C(=O)N[C@@H](CC(N)=O)C(=O)N[C@H]2C(=O)N[C@H]3C(=O)N[C@H](C(=O)N[C@H](C(=O)NCCCCCCNC(=N)N)c4cc(O)cc(O)c4-c4cc3ccc4O)[C@H](O)c3ccc(c(Cl)c3)Oc3cc2cc(c3O[C@@H]2O[C@H](CO)[C@@H](O)[C@H](O)[C@H]2O[C@H]2C[C@](C)(N)[C@H](O)[C@H](C)O2)Oc2ccc(cc2Cl)[C@H]1O | > 128 µg/mL | > 128 µg/mL | 0.5 µg/mL (≈ 0.317 µM) | 8 µg/mL (≈ 5.08 µM) | 128 µg/mL (≈ 81.2 µM) | 32 µg/mL (≈ 20.3 µM) | 16 µg/mL (≈ 10.2 µM) | 32 µg/mL (≈ 20.3 µM) | 2 µg/mL (≈ 1.27 µM)
CC(C)C[C@@H](N)C(=O)N[C@H]1C(=O)N[C@@H](CC(N)=O)C(=O)N[C@H]2C(=O)N[C@H]3C(=O)N[C@H](C(=O)N[C@H](C(=O)NCCNC(=O)[C@@H](N)CCCNC(=N)N)c4cc(O)cc(O)c4-c4cc3ccc4O)[C@H](O)c3ccc(c(Cl)c3)Oc3cc2cc(c3O[C@@H]2O[C@H](CO)[C@@H](O)[C@H](O)[C@H]2O[C@H]2C[C@](C)(N)[C@H](O)[C@H](C)O2)Oc2ccc(cc2Cl)[C@H]1O | > 128 µg/mL | 128 µg/mL (≈ 78.4 µM) | 1 µg/mL (≈ 0.612 µM) | 32 µg/mL (≈ 19.6 µM) | 64 µg/mL (≈ 39.2 µM) | 16 µg/mL (≈ 9.79 µM) | 16 µg/mL (≈ 9.79 µM) | 64 µg/mL (≈ 39.2 µM) | 2 µg/mL (≈ 1.22 µM)
CC(C)C[C@@H](N)C(=O)N[C@H]1C(=O)N[C@@H](CC(N)=O)C(=O)N[C@H]2C(=O)N[C@H]3C(=O)N[C@H](C(=O)N[C@H](C(=O)NCc4ccc(-c5cccc(CN)c5)cc4)c4cc(O)cc(O)c4-c4cc3ccc4O)[C@H](O)c3ccc(c(Cl)c3)Oc3cc2cc(c3O[C@@H]2O[C@H](CO)[C@@H](O)[C@H](O)[C@H]2O[C@H]2C[C@](C)(N)[C@H](O)[C@H](C)O2)Oc2ccc(cc2Cl)[C@H]1O | > 128 µg/mL | 128 µg/mL (≈ 78.6 µM) | 0.125 µg/mL (≈ 0.0767 µM) | 16 µg/mL (≈ 9.82 µM) | > 128 µg/mL | 8 µg/mL (≈ 4.91 µM) | 8 µg/mL (≈ 4.91 µM) | 2 µg/mL (≈ 1.23 µM) | 0.5 µg/mL (≈ 0.307 µM)
CC(C)C[C@@H](N)C(=O)N[C@H]1C(=O)N[C@@H](CC(N)=O)C(=O)N[C@H]2C(=O)N[C@H]3C(=O)N[C@H](C(=O)N[C@H](C(=O)NCCN)c4cc(O)cc(O)c4-c4cc3ccc4O)[C@H](O)c3ccc(c(Cl)c3)Oc3cc2cc(c3O[C@@H]2O[C@H](CO)[C@@H](O)[C@H](O)[C@H]2O[C@H]2C[C@](C)(N)[C@H](O)[C@H](C)O2)Oc2ccc(cc2Cl)[C@H]1O | > 128 µg/mL | > 128 µg/mL | 2 µg/mL (≈ 1.35 µM) | 32 µg/mL (≈ 21.7 µM) | 128 µg/mL (≈ 86.6 µM) | 128 µg/mL (≈ 86.6 µM) | 128 µg/mL (≈ 86.6 µM) | 128 µg/mL (≈ 86.6 µM) | 4 µg/mL (≈ 2.71 µM)

Reference: ChEMBL document CHEMBL6127119 (J Med Chem, 2024)
